Assay [1] has as its system SETFA (Setaria faberi, giant foxtail). The assay can be described thus: Pre-emergence soil-applied mixtures, greenhouse. In kind it is in vivo, Setaria faberi Herrm. Particulars: for Visual Weed Control (%) Obs: 27 DAA. The source says:
(§1) Seeds or nutlets of the desired test plant species were planted in a soil matrix prepared by mixing a loam soil (32 percent silt, 23 percent clay, and 45 percent sand, with a pH of about 6.5 and an organic matter content of about 1.9 percent) and calcareous grit in an 80 to 20 ratio. The soil matrix was contained in plastic pots with a volume of 1 quart and a surface area of 83.6 square centimeters (cm^2).
(§2) Treatments consisted of the benzyl ester of 4-amino-3-chloro-5-fluoro-6-(4-chloro-2-fluoro-3-methoxy-phenyl)pyridine-2-carboxylic acid (compound A) formulated as an SC (suspension concentrate) and various herbicidal components alone and in combination. Forms of compound A were applied on an acid equivalent basis.
(§3) Other herbicidal components were applied on an acid equivalent or active ingredient basis and included the PSII-inhibiting herbicides, atrazine formulated as Atrazine® 90WDG, metribuzin formulated as Metribuzin 75DF, simazine formulated as Princep Caliber 90, tebuthiuron formulated as Spike 80DF, cyanazine (technical grade material), hexazinone (technical grade material), linuron (technical grade material), terbuthylazine (technical grade material), and diuron formulated as Diuron 4L.
(§4) Treatment requirements were calculated based upon the rates being tested, the concentration of active ingredient or acid equivalent in the formulation, and a 12 mL application volume at a rate of 187 L/ha.
(§5) For treatments comprised of formulated compounds, measured amounts of compounds were placed individually in 25 mL glass vials and diluted in a volume of 1.25% (v/v) Agri-Dex® crop oil concentrate (COC) to obtain 12× stock solutions. […] Application solutions were prepared by adding an appropriate amount of each stock solution (e.g., 1 mL) and diluted to the appropriate final concentrations with the addition of 10 mL of an aqueous mixture of 1.25% (v/v) COC so that the final spray solutions contained 1.25% (v/v) COC.
(§6) For treatments comprised of technical compounds, weighed amounts can be placed individually in 25 mL glass vials and dissolved in a volume of 97:3 (v/v) acetone/DMSO to obtain 12× stock solutions. […] Application solutions can be prepared by adding an appropriate amount of each stock solution (e.g., 1 mL) and diluted to the appropriate final concentrations with the addition of 10 mL of an aqueous mixture of 1.5% (v/v) COC so that the final spray solutions contain 1.25% (v/v) COC. When technical materials are used, the concentrated stock solutions can be added to the spray solutions so that the final acetone and DMSO concentrations of the application solutions are 16.2% and 0.5%, respectively.
(§7) For treatments comprised of formulated and technical compounds, weighed amounts of the technical materials can be placed individually in 25 mL glass vials and dissolved in a volume of 97:3 (v/v) acetone/DMSO to obtain 12× stock solutions, and measured amounts of the formulated compounds can be placed individually in 25 mL glass vials and diluted in a volume of 1.5% (v/v) COC or water to obtain 12× stock solutions. […] Application solutions can be prepared by adding an appropriate amount of each stock solution (e.g., 1 mL) and diluted to the appropriate final concentrations with the addition of an appropriate amount of an aqueous mixture of 1.5% (v/v) COC so that the final spray solutions contain 1.25% (v/v) COC. As required, additional water and/or 97:3 (v/v) acetone/DMSO can be added to individual application solutions so that the final acetone and DMSO concentrations of the application solutions being compared are 8.1% and 0.25%, respectively.
(§8) All stock solutions and applications solutions were visually inspected for compound compatibility prior to application. Spray solutions were applied to the soil with an overhead Mandel track sprayer equipped with a 8002E nozzles calibrated to deliver 187 L/ha over an application area of 0.503 m^2 at a spray height of 18 inches (46 cm) above average pot height. […]

Assay [2] relates to BRAPP (Brachiaria platyphylla, broadleaf signalgrass). Briefly: Pre-emergence soil-applied mixtures, greenhouse. It is filed as in vivo, Brachiaria platyphylla (Groseb.) Nash.
Description: as §1, §2, §3, §4, §5, §6, §7, §8

Setting [3] is: Compound A Benzyl Ester 16 g ae/ha.
Setting [4] is: Compound A Benzyl Ester 32 g ae/ha.

Here are results for one molecule from patent US8912121B2, “Herbicidal compositions comprising 4-amino-3-chloro-5-fluoro-6-(4-chloro-2-fluoro-3-methoxyphenyl)pyridine-2-carboxylic acid or a derivative thereof and certain PS II inhibitors” (Dow Agrosciences LLC, priority 2012, dated 2014).

Molecules are shown by their SMILES.

Regarding `COc1c(Cl)ccc(-c2nc(C(=O)OCc3ccccc3)c(Cl)c(N)c2F)c1F` [Compound A Benzyl Ester, benzyl ester of 4-amino-3-chloro-5-fluoro-6-(4-chloro-2-fluoro-3-methoxy-phenyl)pyridine-2-carboxylic acid], the “Visual Weed Control (%) Obs” value in assay [1] (16 g ae/ha) was 8%; in assay [1] (32 g ae/ha) it was 15%. Moreover, the “Visual Weed Control (%)-29 DAA SETFA Obs” value in assay [1] (setting [3]) and in assay [1] (setting [4]) was 0% each time. Also, the “Visual Weed Control (%) - 27 DAA BRAPP Obs” value in assay [2] (Compound A Benzyl Ester 16 g ae/ha, Table 28) was determined as 0%; in assay [2] (Compound A Benzyl Ester 32 g ae/ha, Table 27) it was 0%; in assay [2] (Compound A Benzyl Ester 32 g ae/ha, Table 28), 0%. For the same molecule, the “Visual Weed Control (%)-28 DAA BRAPP Obs” value in assay [2] (setting [3]) is 0%; in assay [2] (setting [4]) it was 5%.
